Results taken from PMC7156736, “Phase 1 study of the pan-HER inhibitor dacomitinib plus the MEK1/2 inhibitor PD-0325901 in patients with KRAS-mutation-positive colorectal, non-small-cell lung and pancreatic cancer” (British Journal of Cancer, 2020).
Where two headings read alike, the source gives them in different places.

What was measured:
[1] = tested on: patients with advanced cancers; set-up: method as in PMID 20215549; details: BID, continuous schedule; cited from earlier work
[2] = tested on: patients with KRASm CRC, NSCLC or pancreatic cancer; type: in vivo; details: dacomitinib QD continuous, PD-0325901 BID 21 days on/7 days off
Text: . The starting doses were based on previous data from single-agent Phase 1 studies with both compounds, taking into account the potential for synergistic toxicity. […]. Dose-escalation decisions were based on safety evaluation of all evaluable patients, performed after completion of the first treatment cycle. Patients were considered evaluable for the dose-determining part of this study if at least one cycle of study treatment was completed, with the minimum safety evaluation conducted, and at least one administration of both drugs received, or if dose-limiting toxicity (DLT) had occurred during the first cycle. If one out of three patients experienced a DLT, the number of patients treated at that dose level was expanded to a maximum of six. […] Patients were continuing study treatment until disease progression, unacceptable toxicity or investigator/patient decision to discontinue.
Safety was monitored throughout the treatment by physical examination, laboratory assessments, electrocardiography, ophthalmic evaluation and collection of adverse events. Adverse events were recorded according to the Common Terminology Criteria for Adverse Events version 4.0. All adverse events that were possible, probable or definite related to study drug were considered as study/treatment related. […]

[3] = plasma pharmacokinetics in patients (HPLC–MS/MS, non-compartmental analysis); type: in vivo, human; details: for AUC(0-t): read-out: AUC0-12h PD-0325901, mean (CV%); for Cmax: read-out: Cmax PD-0325901, mean (CV%)
Experimental: For pharmacokinetic analyses, serial blood samples were obtained from all patients prior to treatment administration on day 1, and 1, 2, 3, 4, 6, 8, 12, 24, 72 and 144 h after the first dose. On day 1 of cycle 2, blood samples were drawn before and 1, 2, 3, 4, 6, 8, 12 and 24 h after administration. Plasma samples were assayed using a validated high-performance liquid chromatography– tandem mass spectrometry method (HPLC–MS/MS). Briefly, dacomitinib and PD-0325901 were extracted from plasma by protein precipitation with a mixture of acetonitrile/methanol (1:1 v/v). Compounds were chromatographically separated using a Waters Xbridge BEH Phenyl column (50 ×2.1-mm ID, 5-μm particle size), and detection was performed using an API4000 tandem mass spectrometer equipped with a turbo ion spray interface, operating in the positive ion mode. Transitions from m/z 480 to 329 and m/z 489 to 255 were monitored for the detection of dacomitinib and PD-0325901, respectively. Stable isotope-labelled internal standards were used for the quantification. The lower and upper limits of quantification were, respectively, 0.5 and 50 ng/ml for dacomitinib, and 5 and 500 ng/ml for PD-0325901. Pharmacokinetic parameters were calculated in R using an in-house-developed validated script for non-compartmental pharmacokinetic analyses (version 3.6.0).[9]

[4] = Dose-level 2: dacomitinib 15 mg QD + PD-0325901 3 mg BID, Cycle 1 Day 1, n = 6
[5] = human, plasma, oral, 6 mg, All 6 mg doses, Cycle 1 Day 1, n = 14
[6] = human, plasma, oral, 6 mg, All 6 mg doses, Cycle 2 Day 1 or last day of concomitant use, n = 6
[7] = human, plasma, oral, Dose-level 1: dacomitinib 30 mg QD + PD-0325901 2 mg BID, Cycle 1 Day 1, n = 6
[8] = human, plasma, oral, Dose-level 1: dacomitinib 30 mg QD + PD-0325901 2 mg BID, Cycle 2 Day 1, n = 6
[9] = human, plasma, oral, Dose-level 2: dacomitinib 15 mg QD + PD-0325901 3 mg BID, Cycle 2 Day 1, n = 5
[10] = human, plasma, oral, Dose-level 3: dacomitinib 15 mg QD + PD-0325901 4 mg BID, Cycle 1 Day 1, n = 2
[11] = human, plasma, oral, Dose-level 3: dacomitinib 15 mg QD + PD-0325901 4 mg BID, Cycle 2 Day 1, n = 2
[12] = human, plasma, oral, Dose-level 4: dacomitinib 15 mg QD + PD-0325901 5 mg BID, Cycle 1 Day 1, n = 3
[13] = human, plasma, oral, Dose-level 4: dacomitinib 15 mg QD + PD-0325901 5 mg BID, Cycle 2 Day 1, n = 4
[14] = human, plasma, oral, Dose-level 5: dacomitinib 15 mg QD + PD-0325901 6 mg BID, Cycle 1 Day 1, n = 8
[15] = human, plasma, oral, Dose-level 5: dacomitinib 15 mg QD + PD-0325901 6 mg BID, Cycle 2 Day 1, n = 5
[16] = human, plasma, oral, Dose-level 6: dacomitinib 30 mg (4/3) QD + PD-0325901 6 mg BID, Cycle 1 Day 1, n = 3
[17] = human, plasma, oral, Dose-level 6: dacomitinib 30 mg (4/3) QD + PD-0325901 6 mg BID, last day of concomitant use of both drugs, n = 1
[18] = human, plasma, oral, Dose-level 7: dacomitinib 30 mg (5/2) QD + PD-0325901 6 mg (5/2) BID, Cycle 1 Day 1, n = 3
[19] = human, plasma, oral, Dose-level 7: dacomitinib 30 mg (5/2) QD + PD-0325901 6 mg (5/2) BID, last day of concomitant use of both drugs, n = 2
[20] = human, plasma, oral, Dose-level 8: dacomitinib 30 mg (5/2) QD + PD-0325901 5 mg (5/2) BID, Cycle 1 Day 1, n = 4
[21] = human, plasma, oral, Dose-level 8: dacomitinib 30 mg (5/2) QD + PD-0325901 5 mg (5/2) BID, last day of concomitant use of both drugs, n=2
[22] = human, plasma, oral, Dose-level -1: dacomitinib 15 mg QD + PD-0325901 2 mg BID, Cycle 1 Day 1, n = 4
[23] = human, plasma, oral, Dose-level -1: dacomitinib 15 mg QD + PD-0325901 2 mg BID, Cycle 2 Day 1, n = 3
[24] = patients, combination treatment

O=C(NOC[C@H](O)CO)c1ccc(F)c(F)c1Nc1ccc(I)cc1F [PD-0325901]
formal single-agent RP2D [1]: 10 mg
recommended Phase 2 dose (RP2D) / established maximum dose level in the combination with continuous dacomitinib dosing [2]: 6 mg
tmax PD-0325901, mean ([3]; All 6 mg doses, Cycle 1 Day 1, n = 14): 1.5 h
tmax PD-0325901, mean ([3]; All 6 mg doses, Cycle 2 Day 1 or last day of concomitant use, n = 6): 2.2 h
tmax PD-0325901, mean ([3]; Dose-level 1: dacomitinib 30 mg QD + PD-0325901 2 mg BID, Cycle 1 Day 1, n = 6): 1.2 h
tmax PD-0325901, mean ([3]; Dose-level 1: dacomitinib 30 mg QD + PD-0325901 2 mg BID, Cycle 2 Day 1, n = 6): 1.5 h
AUC0-12h PD-0325901, mean (CV%) [3, 4]: 273 (15) ng*h/ml
tmax PD-0325901, mean [3, 4]: 1.2 h
tmax PD-0325901, mean ([3]; Dose-level 2: dacomitinib 15 mg QD + PD-0325901 3 mg BID, Cycle 2 Day 1, n = 5): 2.2 h
tmax PD-0325901, mean ([3]; Dose-level 4: dacomitinib 15 mg QD + PD-0325901 5 mg BID, Cycle 1 Day 1, n = 3): 1.4 h
tmax PD-0325901, mean ([3]; Dose-level 5: dacomitinib 15 mg QD + PD-0325901 6 mg BID, Cycle 1 Day 1, n = 8): 1.4 h
tmax PD-0325901, mean ([3]; Dose-level 5: dacomitinib 15 mg QD + PD-0325901 6 mg BID, Cycle 2 Day 1, n = 5): 1.2 h
tmax PD-0325901, mean ([3]; Dose-level 6: dacomitinib 30 mg (4/3) QD + PD-0325901 6 mg BID, Cycle 1 Day 1, n = 3): 1.3 h
tmax PD-0325901, mean ([3]; Dose-level 7: dacomitinib 30 mg (5/2) QD + PD-0325901 6 mg (5/2) BID, Cycle 1 Day 1, n = 3): 1.3 h
tmax PD-0325901, mean ([3]; Dose-level 8: dacomitinib 30 mg (5/2) QD + PD-0325901 5 mg (5/2) BID, Cycle 1 Day 1, n = 4): 1.5 h
tmax PD-0325901, mean ([3]; Dose-level -1: dacomitinib 15 mg QD + PD-0325901 2 mg BID, Cycle 1 Day 1, n = 4): 1.3 h
tmax PD-0325901, mean ([3]; Dose-level -1: dacomitinib 15 mg QD + PD-0325901 2 mg BID, Cycle 2 Day 1, n = 3): 1.1 h
plasma concentration versus target level (16.5 ng/ml) ([3]; PD-0325901 doses of 5 and 6 mg, during the entire dose interval): exceeded the target level
increase of exposure with dose ([3]; across dose levels): approximately dose-proportionally
AUC(0-t) [3, 5]: 706 ng·h/mL
Cmax [3, 5]: 227 ng/mL
AUC(0-t) [3, 6]: 954 ng·h/mL
Cmax [3, 6]: 217 ng/mL
AUC(0-t) [3, 7]: 188 ng·h/mL
Cmax [3, 7]: 68.7 ng/mL
AUC(0-t) [3, 8]: 210 ng·h/mL
Cmax [3, 8]: 58.3 ng/mL
Cmax ([3]; human, plasma, oral, Dose-level 2: dacomitinib 15 mg QD + PD-0325901 3 mg BID, Cycle 1 Day 1, n = 6): 85 ng/mL
AUC(0-t) [3, 9]: 279 ng·h/mL
Cmax [3, 9]: 73.8 ng/mL
AUC(0-t) [3, 10]: 452 ng·h/mL
Cmax [3, 10]: 106 ng/mL
AUC(0-t) [3, 11]: 376 ng·h/mL
Cmax [3, 11]: 125 ng/mL
AUC(0-t) [3, 12]: 552 ng·h/mL
Cmax [3, 12]: 179 ng/mL
AUC(0-t) [3, 13]: 638 ng·h/mL
Cmax [3, 13]: 229 ng/mL
AUC(0-t) [3, 14]: 822 ng·h/mL
Cmax [3, 14]: 262 ng/mL
AUC(0-t) [3, 15]: 855 ng·h/mL
Cmax [3, 15]: 242 ng/mL
AUC(0-t) [3, 16]: 635 ng·h/mL
Cmax [3, 16]: 192 ng/mL
AUC(0-t) [3, 17]: 1340 ng·h/mL
Cmax [3, 17]: 254 ng/mL
AUC(0-t) [3, 18]: 635 ng·h/mL
Cmax [3, 18]: 192 ng/mL
AUC(0-t) [3, 19]: 406 ng·h/mL
Cmax [3, 19]: 56 ng/mL
Tmax ([3]; human, plasma, oral, Dose-level 7: dacomitinib 30 mg (5/2) QD + PD-0325901 6 mg (5/2) BID, last day of concomitant use of both drugs, n = 2, read-out: tmax PD-0325901, mean): 4.5 h
AUC(0-t) [3, 20]: 463 ng·h/mL
Cmax [3, 20]: 134 ng/mL
AUC(0-t) [3, 21]: 667 ng·h/mL
Cmax [3, 21]: 155 ng/mL
AUC(0-t) [3, 22]: 160 ng·h/mL
Cmax [3, 22]: 43.7 ng/mL
AUC(0-t) [3, 23]: 145 ng·h/mL
Cmax [3, 23]: 47.7 ng/mL
half-life ([3]; human, plasma, oral, patients, combination treatment, read-out: half-life, range): 5 to 9.9 h
accumulation after multiple doses (AUC and Cmax) [3, 24]: minimal accumulation
half-life, mean [3, 24]: 7.7 h
